Assay [1] has as its target T1, Dual specificity tyrosine-phosphorylation-regulated kinase 3 (Homo sapiens) (UniProt O43781).
T1 sequence (whole entry): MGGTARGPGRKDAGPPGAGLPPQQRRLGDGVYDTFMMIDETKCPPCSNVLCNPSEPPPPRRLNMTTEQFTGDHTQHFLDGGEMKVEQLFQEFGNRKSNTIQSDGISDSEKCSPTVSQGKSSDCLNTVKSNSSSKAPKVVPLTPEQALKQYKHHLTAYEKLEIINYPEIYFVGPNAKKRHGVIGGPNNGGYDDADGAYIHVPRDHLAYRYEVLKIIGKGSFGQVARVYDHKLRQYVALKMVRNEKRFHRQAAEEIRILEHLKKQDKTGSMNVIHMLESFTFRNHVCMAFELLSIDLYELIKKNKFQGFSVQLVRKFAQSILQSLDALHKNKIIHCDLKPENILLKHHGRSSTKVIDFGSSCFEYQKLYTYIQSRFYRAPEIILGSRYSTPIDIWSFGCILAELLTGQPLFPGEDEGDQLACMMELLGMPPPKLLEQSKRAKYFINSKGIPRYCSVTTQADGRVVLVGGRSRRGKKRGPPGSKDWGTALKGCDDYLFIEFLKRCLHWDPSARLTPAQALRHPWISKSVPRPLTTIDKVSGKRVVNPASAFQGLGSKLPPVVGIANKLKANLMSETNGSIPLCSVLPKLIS
As to the kind of experiment: Inhibition of human recombinant DYRK3 at 15 nM in presence of ATP by radiometric assay relative to control.

The target of assay [2] is T2, Ephrin type-B receptor 1 (Homo sapiens) (UniProt P54762).
T2 sequence (whole entry): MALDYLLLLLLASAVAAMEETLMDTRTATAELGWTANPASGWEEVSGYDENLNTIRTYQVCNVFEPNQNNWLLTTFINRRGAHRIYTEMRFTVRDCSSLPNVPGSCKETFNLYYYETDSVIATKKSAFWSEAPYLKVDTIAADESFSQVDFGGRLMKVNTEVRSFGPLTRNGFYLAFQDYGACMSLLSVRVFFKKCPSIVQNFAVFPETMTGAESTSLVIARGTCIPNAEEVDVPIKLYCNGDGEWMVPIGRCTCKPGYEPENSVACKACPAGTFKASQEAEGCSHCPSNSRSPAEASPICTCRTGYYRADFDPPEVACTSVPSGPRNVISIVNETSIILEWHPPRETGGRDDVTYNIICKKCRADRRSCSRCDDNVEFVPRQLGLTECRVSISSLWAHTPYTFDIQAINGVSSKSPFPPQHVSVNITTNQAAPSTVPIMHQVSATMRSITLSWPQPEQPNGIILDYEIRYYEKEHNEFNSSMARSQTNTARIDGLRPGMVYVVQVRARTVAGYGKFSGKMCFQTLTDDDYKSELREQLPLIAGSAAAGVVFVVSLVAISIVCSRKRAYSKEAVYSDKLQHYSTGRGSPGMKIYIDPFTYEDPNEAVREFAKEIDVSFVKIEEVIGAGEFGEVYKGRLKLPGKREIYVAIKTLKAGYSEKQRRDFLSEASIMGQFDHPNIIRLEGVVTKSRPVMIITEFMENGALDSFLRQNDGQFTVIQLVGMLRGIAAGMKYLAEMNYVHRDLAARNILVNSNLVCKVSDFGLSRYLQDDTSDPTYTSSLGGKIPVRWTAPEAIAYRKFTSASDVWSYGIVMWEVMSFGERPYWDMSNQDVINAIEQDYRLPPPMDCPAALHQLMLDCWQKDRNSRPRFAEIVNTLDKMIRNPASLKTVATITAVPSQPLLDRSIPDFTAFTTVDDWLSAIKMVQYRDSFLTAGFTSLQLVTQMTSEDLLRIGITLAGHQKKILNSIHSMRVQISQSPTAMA
Briefly: Inhibition of human recombinant EphB1 at 15 nM related to control ULK1.

In assay [3] the target is T3, Cytoplasmic tyrosine-protein kinase BMX (Homo sapiens) (UniProt P51813).
T3 sequence (whole entry): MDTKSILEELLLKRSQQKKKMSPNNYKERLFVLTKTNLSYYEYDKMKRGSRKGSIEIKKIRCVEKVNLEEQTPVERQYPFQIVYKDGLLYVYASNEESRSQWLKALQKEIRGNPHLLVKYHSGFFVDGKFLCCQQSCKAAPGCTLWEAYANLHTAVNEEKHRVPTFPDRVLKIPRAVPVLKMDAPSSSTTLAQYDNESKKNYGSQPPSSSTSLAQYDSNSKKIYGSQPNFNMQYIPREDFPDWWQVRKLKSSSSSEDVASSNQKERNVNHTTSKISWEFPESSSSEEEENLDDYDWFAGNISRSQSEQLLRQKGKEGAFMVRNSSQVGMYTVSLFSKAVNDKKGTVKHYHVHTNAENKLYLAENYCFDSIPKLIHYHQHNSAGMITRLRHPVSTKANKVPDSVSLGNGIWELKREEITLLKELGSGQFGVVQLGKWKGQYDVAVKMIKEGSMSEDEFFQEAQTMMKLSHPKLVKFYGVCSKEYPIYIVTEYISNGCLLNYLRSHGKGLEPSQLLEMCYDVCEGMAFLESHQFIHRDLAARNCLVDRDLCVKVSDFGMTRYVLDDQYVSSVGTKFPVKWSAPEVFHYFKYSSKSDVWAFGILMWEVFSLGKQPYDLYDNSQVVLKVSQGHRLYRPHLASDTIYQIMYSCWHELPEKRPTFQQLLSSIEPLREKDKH
Briefly: Inhibition of human recombinant BMX at 40 nM related to control ULK1.

With `CC(C)[C@H](NC(=O)c1cc(-c2cnn3cc(-c4ccc(OCCN5CCCCC5)cc4)cnc23)cs1)C(F)(F)F`, in assay [1], the inhibition (as a rule, the drop in the measured response relative to a control, in per cent) was 23%. In assay [2], the fold change (FC) was 0.14. On to `O=C(N[C@@H](C1CC1)C(F)(F)F)c1cc(-c2cnn3cc(-c4ccc(F)cc4)cnc23)cs1`, for which the fold change (FC) in assay [3] worked out at 0.05.

Values taken from ChEMBL document CHEMBL5653631, “A Potent and Selective ULK1 Inhibitor Suppresses Autophagy and Sensitizes Cancer Cells to Nutrient Stress” (iScience, 2018).
